Entries after “also recorded” stand apart in the source; their conditions may differ.
Key:
[1] = test system: retinal ganglion cells (RGC); experiment: NMDA excitotoxicity mouse model: RGC count by retinal Flatmount; format: in vivo, C57BL/6)
Experimental: This study was for evaluating the effect of adeno-associated viral (AAV) vectors on retinal ganglion cell protection following damage caused via N-methyl-D-aspartate (NMDA) administration in the mouse. […] Groups 7 and 8 were added to test a higher concentration of MK-801. […] This study was conducted in wild type mice (Mus musculus, C57BL/6).
300 μL of the 5 mM NMDA stock was combined with 300 μL of sterile PBS and 1 μL as injected on Day 0 for a final concentration of 2.5 mM NMDA.
300 μL of the 5 mM NMDA stock as combined with 300 μL of sterile-filtered MK-801 and 1 μL was injected on Day 0 for a final concentration of 2.5 mM NMDA/100 μM MK-801.
300 μL of the 5 mM NMDA stock was combined with 300 μL of sterile PBS and 1 μL was injected on Day 0 for a final concentration of 2.5 mM NMDA.
On Day −28 or Day 0 based on the experimental design, mice were given buprenorphine 0.01-0.05 mg/kg subcutaneously (SQ). Animals were then tranquilized for the intravitreal injections with ketamine/xylazine or inhaled isoflurane and one drop of 0.5% proparacaine HCl was applied to both eyes. The conjunctiva was gently grasped with Dumont #4 forceps, and the injection was made using a 33 G needle and a Hamilton syringe. After dispensing the syringe contents, the syringe needle was slowly withdrawn. Following the injection procedure, 1 drop of Ofloxacin ophthalmic solution was applied topically to the ocular surface with eye lube.
Eyes were enucleated and immediately fixed in 4% paraformaldehyde in phosphate-buffered saline (PBS) and stored overnight at 4° C. The following day, the eyes were transferred to cold immunocytochemistry (ICC) buffer (PBS containing 0.5% BSA and 0.2% Tween 20) until processing. Using a dissecting microscope, the eye was carefully trimmed of extraneous tissue at the limbus and, using fine curved scissors, the anterior chamber was removed. Retinas in the eye cup were rinsed with cold ICC buffer. Eye cups were placed in cold ICC buffer containing 1/100 rat anti-CNP36 (Groups 3-6 only; resuspended at 0.5 mg/mL in PBS) for 3 hours at 4° C. Eye cups were then washed extensively and stained with 1/200 donkey anti-rat Cy3 and 1/1,000 DAPI for 2-3 hours at 4° C. Groups 1 and 2 were stained with 1/500 TUJ-1 and 1/1000 DAPI, while Groups 7 and 8 were incubated with 1/1,000 DAPI alone. Eye cups were washed extensively but gently with cold ICC buffer. Using fine curved scissors and an eyelash knife, the retina was detached from the optic nerve head and removed from the RPE/choroid. Radial cuts were then made toward the center and retinas were flat mounted, covered, and sealed. 2D fluorescent microscopy images were acquired using an Olympus Bx63 upright fluorescent microscope. […] Images at 20× were acquired in 4 quadrants and a central 248.1×325.7 μm region was analyzed for RGC counts using Olympus cellSens and ImageJ software.
Groups 1 and 2 were stained with DAPI and TUJ-1 and images were captured at 20× (FIG. 10A). RGCs were counted in four quadrants, and cells/mm2 were averaged across each group.
Groups 3-8 were stained for DAPI and four images were captured for each retina at 20× approximately 600 μm from the optic nerve head. RGCs were counted in a central 248.1×325.7 μm region and cells/mm2 were averaged over each group (FIG. 10C).
The statistical analyses were performed on the Group 3-8 RGC data (one-way ANOVA followed by multiple comparisons using the Dunnett statistical hypothesis comparison).

[2] = test system: TUJ-1+ and cone arrestin+ cells; experiment: NMDA excitotoxicity mouse model: immunohistochemistry (TUJ-1, cone arrestin); format: in vivo, C57BL/6); conditions: Groups 1 and 2, Day 7, qualitative
Experimental: All eyes designated for immunohistochemistry (IHC) were enucleated, the approximate site of injection was marked, and eyes were fixed at 4° C. in 4% paraformaldehyde in separately labeled vials overnight. Eyes were then transferred into 0.1M phosphate buffer (PB), brought through a sequential sucrose gradient (10-30%, 1 hour each) followed by embedding in OCT medium and freezing on dry ice.
Negative controls were performed for the staining cocktail by utilizing only the secondary antibody. Five slides spanning the retina for each eye were stained. Two pictures per retinal cross-section—one at or near the injection site and one from a central region—were taken using an Olympus Bx63 upright fluorescent microscope and cellSens software. […] All groups had clear cone arrestin staining with some TUJ-1+ cells observed (FIG. 12B). No further staining or analysis was performed on cross-sections as the staining was not an informative endpoint.

[3] = test system: retinal ganglion cells (RGC); experiment: NMDA excitotoxicity mouse model: RGC count by H&E histopathology; format: in vivo, C57BL/6); conditions: for RGC #/HPF (400X): H&E, single animals, Group 2
Experimental: This study was for evaluating the effect of adeno-associated viral (AAV) vectors on retinal ganglion cell protection following damage caused via N-methyl-D-aspartate (NMDA) administration in the mouse. Injection volumes and treatment options can be found in Table 18. Groups 7 and 8 were added to test a higher concentration of MK-801. The tissues for bioanalysis were snap frozen whole instead of being homogenized. The methods of adding IBMX to whole blood were established and clarified. This study was conducted in wild type mice (Mus musculus, C57BL/6).
Following euthanasia, eyes of elected animals were processed for histological or immunological examination. The ODs of animal 519 (Group 5) and 629 (Group 6) were noted to have a very small lens, blood in the retina, and the eye was filled with a gel-like substance. […] For Groups 1 and 2, immediately following euthanasia, selected eyes were collected into 10% neutral buffered formalin. The eyes were placed in 70% ethanol the following day. The eyes were then processed to paraffin blocks for sectioning. Sagittal sections of each eye (5 μm thickness) were prepared for all animals. At least 3 slides containing a ribbon of approximately 5 sections were collected sequentially. The optic nerve was included in the sectioning. The slides were stained for hematoxylin and eosin (H&E) and examined using light microscopy. Retinal ganglion cells (RGC) were counted (Table 19 and FIG. 9C).

[4] = test system: apoptosing retinal cells (RGC apoptosis); experiment: Rat pONT model: DARC imaging of RGC apoptosis; format: in vivo, rat (Dark Agouti)
Experimental: (§1) Using an experimental rat model of partial optic nerve transection (pONT), effects of Adeno-associated virus (AAV) CNP peptide (AAV-P) and protein Fc fusion (AAV-FP) on: retinal ganglion cell (RGC) apoptosis/stress in vivo was assessed using detection of apoptosing retinal cells (DARC) imaging; intraocular inflammation in vivo using Optical Coherence Tomography (OCT) imaging; intraocular pressure (IOP) in vivo using Tonolab tonometry; RGC survival histologically using immunohistochemistry on retinal whole mounts; and retinal microglial activity histologically using immunohistochemistry on retinal whole mounts.
(§2) In total, seventy-two male Dark Agouti (DA) rats aged 8-10 weeks were used in this study. The seventy-two animals were randomly divided into 3 categories.
(§3) Intravitreal injections (IVT, 4 μL) were given under general anesthesia (GA), according to the categories, and administered to the left eye (pONT eye) only once using a 34-gauge Hamilton needle at day 0 after BL imaging. pONT was performed at week 3 in Categories 1 and 2. In Category 3, pONT was performed soon after baseline imaging.
Partial optic nerve transection (pONT) surgery was performed under GA at week 3 in categories 1 and 2. In category 3, pONT surgery was performed on day 0 after BL imaging. […]
DARC/OCT. under GA, DARC/OCT imaging was conducted at baseline (BL), weeks 1, 2, and 4 in categories 1 and 2. pONT was performed at week 3. […] Briefly, fluorescently labelled annexin 776 (6 mg/mL, 40 μL) was […] administrated 2 hours before DARC imaging and then assessed with a confocal scanning laser ophthalmoscope (cSLO). […]
IOP measurements were performed three times a week at weeks 1, 2, and 4. DARC spots on in vivo images were automatically counted by an algorithm developed and validated in the Cordeiro lab. […] RBPMS^+ RGCs in retinal whole mounts were automatically counted and analyzed by a recently developed and validated algorithm in the Cordeiro lab. […] The morphology of microglia in retinal whole mounts was automatically analyzed by a recently developed and validated machine learning approach in the Cordeiro lab. […]

[5] = test system: intraocular pressure (IOP); experiment: Rat partial optic nerve transection (pONT) model: intraocular pressure (Tonolab tonometry); format: in vivo, rat (Dark Agouti)
Experimental: as §1, §2, §3
Partial optic nerve transection (pONT) surgery was performed under GA at week 3 in categories 1 and 2. […]
IOP. […] Ten IOP readings were collected from each eye of each animal at each time point.
IOP measurements were performed three times a week at weeks 1, 2, and 4. DARC spots on in vivo images were automatically counted by an algorithm developed and validated in the Cordeiro lab. […] RBPMS^+ RGCs in retinal whole mounts were automatically counted and analyzed by a recently developed and validated algorithm in the Cordeiro lab. […] The morphology of microglia in retinal whole mounts was automatically analyzed by a recently developed and validated machine learning approach in the Cordeiro lab.
IOP analysis in the both Fc4-CNP36 (FP) and AAV treatment. […] The IOP data was analyzed by subtracting OD (the right eye) from OS (the left eye) in each animal at each time point. […] FIG. 16A illustrates animal IOP monitored during the course of the study. […]

[6] = test system: retinal ganglion cells (RGC); experiment: Rat pONT model: RGC survival, RBPMS+ RGCs in retinal whole mounts; format: in vivo, rat (Dark Agouti)
[7] = Rat pONT model: ELISA of Fc4-CNP36 / CNP36 in ocular homogenate and serum; conditions: after IVT of FP protein, terminal samples; FIG. 18
Experimental: Make a mixture of RIPA and the protease inhibitor was prepared by adding one tablet of protease inhibitor in 10 mL of RIPA buffer. Ocular tissue was measured for the amount of buffer needed. For every 1 mg of tissue, 10 μL of buffer was added. The tube containing the tissue was sonicated for 20 seconds on ice followed by 20 seconds of rest on ice. The sonication and chilling on ice was repeated two more times making 3 cycles in total.
After complete homogenization, the tubes were placed on an orbital shaker in cold room for two hours. After two hours, the tubes were centrifuged for five minutes at 13,000 rpm. The supernatants were collected and stored store at −80° C.
Animals were culled at week 4 in categories 1 and 2, and at week 1 in category 3. Before culling, a blood sample (at least 2 mL) was collected by cardiac puncture under the terminal procedure, centrifuged to collect serum, and stored at −80° C.
The remaining three blocks (blocks 4-6) of animals from each category (36 rats in total) were used for protein analysis. After culling, both eyes from each animal were enucleated and snap-frozen with liquid nitrogen, cryogenically homogenized with mortar and pestle and stored at −80° C. until protein analysis.
A serial dilution of CNP-Fc can be used in the assay. The detection range of CNP-Fc concentration in this assay can be from 0.78 to 50 ng/mL. […]

[8] = test system: NIH3T3 cells (cGMP secreted); experiment: EC50 for CNP-Fc constructs, cGMP ELISA of NIH3T3 supernatant; format: cell-based; conditions: NIH3T3, 30 minutes, 1.8 mM IBMX, cGMP secreted by the cells; FIG. 25B
Experimental: EC50 for CNP-Fc described herein were measured by ELISA. 2.5E+05 NIH3T3 cells/well were plated. […] After 30 minutes, supernatant was collected for cGMP determined via ELISA. FIG. 25A illustrates a standard curve of cGMP.

**Q.** Which “RGC protection by positive control” value ([1]; 100 μM MK-801) does the source give for `C[C@]12N[C@H](Cc3ccccc31)c1ccccc12` [MK-801] here?
**A.** fully rescued the NMDA RGC loss phenotype

**Q.** And the “RGC count, retinal Flatmount (Groups 1 and 2)” value ([1]; Group 2 ODs, NMDA + MK-801 co-injection IVT Day 0, DAPI and TUJ-1)?
**A.** 9,000±500 cells/mm2

**Q.** And the “RGC count, retinal Flatmount (Groups 3-8)” value ([1]; Group 8 ODs, NMDA + 100 μM MK-801 co-injection IVT Day 0, DAPI)?
**A.** 12,000±300 cells/mm2

**Q.** What about the “P, RGC count NMDA+MK-801-treated (Group 8) versus NMDA-treated (Group 7 OD) eyes” value ([1]; one-way ANOVA, Dunnett, MK-801 100 μM) of the same compound?
**A.** < 0.0001

**Q.** What about the “number of TUJ-1+ and cone arrestin+ cells between groups” value [2] of the same compound?
**A.** did not appear to be a difference

**Q.** What about the “mean RGC count, Group 2 versus Group 1” value ([3]; H&E histopathology, ODs and OSs) of the same compound?
**A.** no differences in the mean RGC count

**Q.** And the “RGC #/HPF (400X)” value ([3]; L eye (OS, control eye, no NMDA))?
**A.** RGC #/HPF (400X) = 37; also recorded: RGC #/HPF (400X) = 35; also recorded: RGC #/HPF (400X) = 55; also recorded: RGC #/HPF (400X) = 38

**Q.** What about the “RGC #/HPF (400X)” value ([3]; R eye (OD, experimental eye: NMDA + MK-801)) of the same compound?
**A.** RGC #/HPF (400X) = 41; also recorded: RGC #/HPF (400X) = 31

**Q.** Which “p, DARC count FP (High) versus AAV-Negative” value ([4]; 80 μg/eye IVT) does the source give for “AMI263: purified fusion protein Fc4-(G4S)4-CNP36 (IgG4 Fc), SEQ ID NO: 135” here?
**A.** 0.0078

**Q.** What about the “DARC count, FP conditions” value ([4]; FP 2, 20, 80 μg/eye IVT, baseline subtracted, listed as FP) of the same compound?
**A.** lowest DARC count; also recorded: dose-dependent effect

**Q.** And the “DARC count at highest FP dose” value ([4]; FP (H) = 80 μg/eye IVT, listed as FP)?
**A.** complete inhibition of DARC formation; also recorded: significant reduction compared to Sham control

**Q.** And the “effect on IOP” value ([5]; IVT 2, 20 and 80 μg/eye of affinity purified FP)?
**A.** significant effect on IOP reduction

**Q.** And the “dose at which IOP reduction reached maximal” value ([5]; IVT, range 2-80 μg/eye)?
**A.** 2 μg/eye

**Q.** And the “p, reduction in the IOP” value ([5]; all FP concentrations (2, 20, 80 μg/eye IVT), Day 1 compared to baseline (Day 0) or Day 7 after pONT)?
**A.** < 0.01

**Q.** And the “RGC counts versus FP dose” value ([6]; FP 2, 20, 80 μg/eye IVT, FIG. 17B)?
**A.** increased with dose increase

**Q.** What about the “RGC counts in eyes after treatment” value ([6]; summary) of the same compound?
**A.** RGC counts increased

**Q.** And the “FP4-CNP36 levels in treated eyes (OS)” value [7]?
**A.** correlated to the dose amount

**Q.** And the “EC50 values (rank order)” value [8]?
**A.** CNP-22 ≡Fc4-CNP36>Aflibercept-Fc4-CNP36>Fc1-CNP36>>Fc4-CNP22

Source: patent publication US20250099622A1, “COMPOSITIONS AND METHODS FOR EXPRESSING THERAPEUTICS” (priority 2022, published 2025)
